From ChEMBL document CHEMBL2029318, “Synthesis and SAR of selective small molecule neuropeptide Y Y2 receptor antagonists” (Bioorg Med Chem Lett, 2012)
Activity calls are given as the source filed them.

Key:
Assay type in all cases: functional
[1] = target: T1, Neuropeptide Y receptor type 1 (Homo sapiens) (UniProt P25929); test: Antagonist activity at neuropeptide Y receptor Y1 at 10 uM
T1 sequence (whole entry): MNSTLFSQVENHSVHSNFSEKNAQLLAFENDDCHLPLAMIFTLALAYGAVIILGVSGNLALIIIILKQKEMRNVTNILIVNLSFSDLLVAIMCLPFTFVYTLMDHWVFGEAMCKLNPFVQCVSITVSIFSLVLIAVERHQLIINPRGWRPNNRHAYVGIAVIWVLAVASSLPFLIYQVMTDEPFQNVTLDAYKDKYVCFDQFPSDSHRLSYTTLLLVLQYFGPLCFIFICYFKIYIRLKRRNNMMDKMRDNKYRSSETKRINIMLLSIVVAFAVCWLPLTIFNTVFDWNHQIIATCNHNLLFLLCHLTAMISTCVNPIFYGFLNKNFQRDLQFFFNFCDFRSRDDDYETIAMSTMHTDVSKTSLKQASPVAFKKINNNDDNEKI

[2] = target: T2, Neuropeptide Y receptor type 2 (Homo sapiens, UniProt P49146); test: Antagonist activity at neuropeptide Y receptor Y2
T2 sequence (P49146 whole entry): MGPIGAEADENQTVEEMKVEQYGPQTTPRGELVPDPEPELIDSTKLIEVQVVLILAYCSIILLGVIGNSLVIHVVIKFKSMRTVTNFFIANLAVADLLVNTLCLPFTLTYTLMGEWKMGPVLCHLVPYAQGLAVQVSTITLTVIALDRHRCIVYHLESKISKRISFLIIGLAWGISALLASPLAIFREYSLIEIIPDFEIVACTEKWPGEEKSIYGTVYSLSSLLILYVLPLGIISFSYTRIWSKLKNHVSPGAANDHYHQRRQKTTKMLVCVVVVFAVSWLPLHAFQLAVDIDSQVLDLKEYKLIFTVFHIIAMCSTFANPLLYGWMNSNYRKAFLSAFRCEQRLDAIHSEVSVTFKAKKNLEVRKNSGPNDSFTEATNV

[3] = target: T3, Neuropeptide Y receptor type 2 (Homo sapiens) (UniProt P49146); test: Antagonist activity at neuropeptide Y receptor Y2 at 10 uM
T3 sequence (whole entry): T2 sequence (P49146 whole entry)

SMILES	Activity [1]	IC50 [2] [nM]	Activity [3]
OC(c1ccccc1)(c1ccccc1)C1CCN(C(=S)Nc2ccc(N3CCCC3)cc2)CC1	inactive	1200	–
CCOc1ccc(NC(=S)N2CCC(C(O)(c3ccccc3)c3ccccc3)CC2)c(C(F)(F)F)c1	inactive	–	inactive
CN(C)S(=O)(=O)c1ccc(NC(=S)N2CCC(C(O)(c3ccccc3)c3ccoc3)CC2)cc1 (stereo unspecified)	inactive	–	inactive
CS(=O)(=O)c1ccc(OC(=O)N2CCC(C(O)(c3ccccc3)c3ccccc3)CC2)cc1	inactive	141	–
CCN(CC)c1ccc(NC(=S)N2CCC(C(O)(c3ccccc3)c3ccccc3)CC2)cc1	inactive	72	–
COc1cccc(-c2nc(-c3ccc(NC(=O)Cc4ccccc4OC)cc3)no2)c1	–	1200	–
CN(C)S(=O)(=O)c1ccc(NC(=S)N2CCN(C3c4ccccc4NC(=O)c4ccccc43)CC2)cc1 (stereo unspecified)	inactive	67	–
CCOc1ccc(NC(=S)N2CCC(C(O)(c3ccccc3)c3ccccc3)CC2)c(F)c1	inactive	1350	–
CCOc1ccc(NC(=S)N2CCC(C(c3ccccc3)c3ccccc3)CC2)cc1	inactive	> 10000	–
CCN(CC)C(=O)c1cccc(OC(=O)N2CCC(C(O)(c3ccccc3)c3ccccc3)CC2)c1	inactive	–	inactive
CCC(=O)Nc1ccc(OC(=O)N2CCC(C(O)(c3ccccc3)c3ccccc3)CC2)cc1	inactive	–	inactive
CCN(CC)c1ccc(NC(=S)N2CCC(C(O)(c3ccccc3)c3ccccc3)CC2)cc1Cl	inactive	85	–
CC(C)Oc1ccc(NC(=S)N2CCC(C(O)(c3ccccc3)c3ccccc3)CC2)cc1	inactive	1770	–
OC(c1ccccc1)(c1ccccc1)C1CCN(C(=S)Nc2ccc(OC(F)(F)F)cc2)CC1	inactive	1050	–
CN(C)S(=O)(=O)c1ccc(OC(=O)N2CCC(C(O)(c3ccccc3)c3ccccc3)CC2)cc1	inactive	61	–
CC(=O)Nc1ccc(OC(=O)N2CCC(C(O)(c3ccccc3)c3ccccc3)CC2)cc1	inactive	–	inactive
Cc1ccc(S(=O)(=O)C(c2ccccc2)c2c(C)noc2C)cc1 (stereo unspecified)	–	4400	–
CCOc1ccc(NC(=S)N2CCC(C(O)c3ccccc3)CC2)cc1 (stereo unspecified)	inactive	–	inactive
O=S(=O)(c1ccc(NC(=S)N2CCC(C(O)(c3ccccc3)c3ccccc3)CC2)cc1)N1CCCC1	inactive	117	–
CCOc1ccc(NC(=S)N2CCN(C(c3ccccc3)c3ccccc3)CC2)cc1	inactive	371	–
CN(C)S(=O)(=O)c1ccc(NC(=S)N2CCC(C(O)(c3ccccc3)c3ccccc3)CC2)cc1	inactive	19	–
CCS(=O)(=O)c1ccc(OC(=O)N2CCC(C(O)(c3ccccc3)c3ccccc3)CC2)cc1	inactive	59	–
CCOc1ccc(NC(=S)N2CCC(C(O)(c3ccccc3)c3ccccc3)CC2)cc1C#N	inactive	323	–
CN(C)c1ccc(NC(=S)N2CCC(C(O)(c3ccccc3)c3ccccc3)CC2)cc1	inactive	612	–
CCOc1ccc(NC(=S)N2CCC(=C(c3ccccc3)c3ccccc3)CC2)cc1	inactive	–	inactive
OC(c1ccccc1)(c1ccccc1)C1CCN(C(=S)Nc2ccc(C(F)(F)F)cc2Cl)CC1	inactive	–	inactive

SMILES	Activity [1]	IC50 [2] [nM]	Activity [3]
CS(=O)(=O)Nc1ccc(OC(=O)N2CCC(C(O)(c3ccccc3)c3ccccc3)CC2)cc1	inactive	394	–
CCN(CC)S(=O)(=O)c1cccc(OC(=O)N2CCC(C(O)(c3ccccc3)c3ccccc3)CC2)c1	inactive	–	inactive
CCOc1ccc(OC(=O)N2CCC(C(O)(c3ccccc3)c3ccccc3)CC2)cc1	inactive	1580	–
OC(c1ccccc1)(c1ccccc1)C1CCN(C(=S)Nc2ccc(C(F)(F)F)cc2)CC1	inactive	178	–
CCN(CC)C(=O)c1ccc(OC(=O)N2CCC(C(O)(c3ccccc3)c3ccccc3)CC2)cc1	inactive	220	–
CCN(CC)S(=O)(=O)c1ccc(NC(=S)N2CCC(C(O)(c3ccccc3)c3ccccc3)CC2)cc1	inactive	136	–
CNC(=O)c1ccc(NC(=S)N2CCC(C(O)(c3ccccc3)c3ccccc3)CC2)cc1	inactive	1420	–
O=C(Oc1ccc(S(=O)(=O)N2CCCC2)cc1)N1CCC(C(O)(c2ccccc2)c2ccccc2)CC1	inactive	49	–
COc1ccc(NC(=S)N2CCC(C(O)(c3ccccc3)c3ccccc3)CC2)cc1	inactive	1100	–
CCNS(=O)(=O)c1ccc(NC(=S)N2CCC(C(O)(c3ccccc3)c3ccccc3)CC2)cc1	inactive	121	–
CCN(CC)S(=O)(=O)c1ccc(OC(=O)N2CCC(C(O)(c3ccccc3)c3ccccc3)CC2)cc1	inactive	12	–
CN(C)S(=O)(=O)c1ccc(NC(=S)N2CCN(C(c3ccccc3)c3ccccc3)CC2)cc1	inactive	483	–
COc1ccc(OC(=O)N2CCC(C(O)(c3ccccc3)c3ccccc3)CC2)cc1	inactive	2680	–
CCOC(=O)c1ccc(NC(=S)N2CCC(C(c3ccccc3)c3ccccc3)CC2)cc1	inactive	6760	–
CN(C)S(=O)(=O)c1ccc(NC(=S)N2CCC(C(O)(c3ccccc3)c3ccsc3)CC2)cc1 (stereo unspecified)	inactive	248	–
CCOc1ccc(NC(=S)N2CCC(C(O)(c3ccccc3)c3c(C)noc3C)CC2)cc1 (stereo unspecified)	inactive	3300	–
Cc1ccc(C)c(NS(=O)(=O)c2cc(C(=O)Nc3ccccc3-c3ccccc3)ccc2C)c1	–	440	–
CC(C)Oc1ccc(NC(=S)N2CCC(C(O)(c3ccccc3)c3ccccc3)CC2)cc1C#N	inactive	899	–
CCCc1ccc(NC(=S)N2CCC(C(O)(c3ccccc3)c3ccccc3)CC2)cc1	inactive	777	–
CCOC(=O)c1ccc(NC(=S)N2CCC(C(O)(c3ccccc3)c3ccccc3)CC2)cc1	inactive	207	–
CN(C)S(=O)(=O)c1ccc(NC(=S)N2CCC(C(O)(c3ccccc3)c3ccc(F)cc3)CC2)cc1 (stereo unspecified)	inactive	89	–
CCOc1ccc(NC(=S)N2CCC(C(O)(c3ccccc3)c3ccccc3)CC2)cc1	inactive	190	–
CN(C)S(=O)(=O)c1ccc(NC(=S)N2CCC(C(O)(c3ccccc3)c3ccccn3)CC2)cc1 (stereo unspecified)	inactive	98	–
CCNC(=O)c1ccc(NC(=S)N2CCC(C(O)(c3ccccc3)c3ccccc3)CC2)cc1	inactive	206	–
CN(C)C(=O)c1ccc(NC(=S)N2CCC(C(O)(c3ccccc3)c3ccccc3)CC2)cc1	inactive	301	–
CCN(CC)C(=O)c1ccc(NC(=S)N2CCC(C(O)(c3ccccc3)c3ccccc3)CC2)cc1	inactive	78	–
